# Measurements as given in BindingDB's records for PubMed 38621327 (Hebei University).
# Columns and labels:
# [1] = target: Transcriptional enhancer factor TEF-3 (Homo sapiens, UniProt Q15561); assay: Inhibition of GST-tagged recombinant TEAD4 (unknown origin) (217 to 434 residues) expressed in Escherichia coli BL21 (DE3) by fluorescence polarization assay
# [2] = Binding affinity to rat heart mitochondria CPT1 assessed as inhibition constant incubated for 3 to 6 mins by Liquid scintillation counting method
# Transcriptional enhancer factor TEF-3, sequence (Q15561 whole entry, the tested form may be a part): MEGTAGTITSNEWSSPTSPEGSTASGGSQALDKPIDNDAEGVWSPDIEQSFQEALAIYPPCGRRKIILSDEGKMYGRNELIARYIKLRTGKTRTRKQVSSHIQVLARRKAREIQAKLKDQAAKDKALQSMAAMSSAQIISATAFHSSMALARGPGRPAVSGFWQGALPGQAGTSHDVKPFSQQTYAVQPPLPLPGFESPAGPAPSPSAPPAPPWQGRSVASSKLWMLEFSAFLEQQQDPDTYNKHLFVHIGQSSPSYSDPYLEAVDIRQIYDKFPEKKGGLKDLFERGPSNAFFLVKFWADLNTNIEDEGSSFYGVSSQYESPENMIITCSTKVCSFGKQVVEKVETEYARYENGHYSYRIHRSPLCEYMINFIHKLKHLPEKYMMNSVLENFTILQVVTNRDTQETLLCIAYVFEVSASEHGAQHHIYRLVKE
structure (smiles),measurement,setting,value
O=C(CCl)c1ccccc1Nc1cccc(C(F)(F)F)c1,EC50,[1],5.9 µM
CCCCCCCCCCCCCCC[C@]1(O)C[C@H](CC(=O)[O-])C[N+](C)(C)C1,Ki,[2],2.8 µM
